Measurements published in patent US20240425464A1, “Substituted Monohydrazides as Potent Antifungal Agents” (University of Kentucky Research Foundation, priority 2023, published 2024).
Values after ≈ are worked out from the molar mass of the structure shown. Where two headings read alike, the source gives them in different places.

Tested on: Candida auris strain AR Bank #384 (K)
Experiment: MIC determination by in vitro antifungal assay
Format: cell-based
Experimental: The antifungal agent amphotericin B (AmB) was purchased from VWR (Radnor PA, USA). AmB was dissolved in DMSO at a final concentration of 5 mg/mL and was stored at −20° C., protected from light. Candida albicans American Type Culture Collection (ATCC) 10231 (strain A), C. albicans ATCC 64124 (B), and C. albicans ATCC MYA-2876 (C) were obtained from Utah State University. C. albicans ATCC 90819 (D), C. albicans ATCC MYA-2310 (E), C. albicans ATCC MYA-1237 (F), C. albicans ATCC MYA-1003 (G), Candida glabrata ATCC 2001 (H), Candida krusei ATCC 6258 (I), Candida parapsilosis ATCC 22019 (J), Cryptococcus neoformans ATCC MYA-895 (M), Aspergillus terreus ATCC MYA-3633 (N), and Aspergillus flavus ATCC MYA-3631 (0) were obtained from the American Type Culture Collection (ATCC; Manassas, VA, USA). Aspergillus nidulans ATCC 38163 (P) was obtained from University of Kentucky. Clinically derived Aspergillus fumigatus NRRL 163 (Q), A. fumigatus NRRL 5109 (R), and A. fumigatus NRRL 6113 (S) were obtained from Northern Regional Research Laboratory (NRRL). Candida auris 384 (K), C. auris 390 (L), and fungal strains 381-400 (including 10 C. auris (AR Bank #381-390), 3 Candida duobushaemulonii (AR Bank #391, AR Bank #392, and AR Bank #394), 2 Candida haemulonii (AR Bank #393 and AR Bank #395), 1 Kodameae ohmeri (AR Bank #396), 1 C. krusei (AR Bank #397), 1 Candida lusitaniae (AR Bank #398), and 2 Saccharomyces cerevisiae strains (AR Bank #399 and AR Bank #400)) were part of a larger fungal library from the AR Bank maintained by the Centers for Disease Control and Prevention (CDC; Atlanta, GA, USA). Filamentous fungi and yeasts were cultivated at 35° C. in RPMI 1640 medium (with L-glutamine, without sodium bicarbonate, Sigma-Aldrich, St. Louis, MO) buffered to a pH of 7.0 with 0.165 M morpholinepropanesulfonic acid (MOPS) buffer (Sigma-Aldrich). For cytotoxicity assays, HepG2 and the mouse macrophage cell line J774A.1 were obtained from University of Kentucky. The human embryonic kidney cell line, HEK-293, was bought from the ATCC. Mammalian cells were grown in Dulbecco's Modified Eagle's Medium (DMEM) (from VWR) with 10% fetal bovine serum (FBS) (from VWR) and 1% Pen/Strep (from ATCC). Cell lines were cultured at 37° C. with 5% CO2 and passaged by trypsinization with 0.05% trypsin: 0.53 mM EDTA (from Sigma-Aldrich).
From the actively growing yeast culture, 100 µL were then transferred to 900 μL of RPMI 1640 medium and re-adjusted to achieve OD600 of 0.12 (˜1×10^6 CFU/mL). The cell suspension was further diluted to achieve 1:100 in RPMI 1640 medium.
Finally, the activity of these monohydrazides was explored against […] non-Candida strains: Cryptococcus neoformans ATCC MYA-895 (M), Aspergillus terreus ATCC MYA-3633 (N), Aspergillus flavus ATCC MYA-3631 (O), Aspergillus nidulans ATCC 38163 (P), Aspergillus fumigatus NRRL 163 (Q), A. fumigatus NRRL 5109 (R), and A. fumigatus NRRL 6113 (S) (Tables 1A and 1B). The double dilution method was used with concentrations ranging from 0.06 to 31.3 j·tg mL^−1 for monohydrazides 1a-9j, and the commercially available positive antifungal control amphotericin B (AmB).

[1] = C. auris AR Bank # 384 (K) (Table 2B)
[2] = strain K = C. auris AR Bank # 0384 (Tables 1A/1B)
[3] = Candidozyma auris, C. auris AR Bank # 384 (K) (Table 2B), read-out: MIC
[4] = Candidozyma auris, strain K = C. auris AR Bank # 0384 (Tables 1A/1B), read-out: MIC
[5] = Candidozyma auris, C. auris AR Bank #384 (K), read-out: MIC

SMILES	MIC [2] [μg/mL^−1]	MIC [4] [µg/mL]	further results
C[C@@H]1[C@H](O)[C@@H](C)/C=C/C=C/C=C/C=C/C=C/C=C/C=C/[C@H](O[C@@H]2O[C@H](C)[C@@H](O)[C@H](N)[C@@H]2O)C[C@@H]2O[C@](O)(C[C@@H](O)C[C@@H](O)[C@H](O)CC[C@@H](O)C[C@@H](O)CC(=O)O[C@H]1C)C[C@H](O)[C@H]2C(=O)O [AmB, amphotericin B, reference compound]	1.95	–	MIC (C. auris AR Bank #384 (K)): 1.95 μg/mL^−1; MIC [1]: 1.95 μg/mL^−1
O=C(NNc1cccc(F)c1)c1ccc(F)cc1F [Compound 1a]	1.95	–	–
O=C(NNc1cccc(Cl)c1)c1ccc(F)cc1F [Compound 1b]	–	13.6 (≈ 48.1 µM)	MIC [3]: 7.8 µg/mL (≈ 27.6 µM)
COc1cccc(NNC(=O)c2ccc(F)cc2F)c1 [Compound 1c]	–	1.95 (≈ 7.01 µM)	–
O=C(NNc1ccc(F)cc1)c1ccc(F)cc1F [Compound 1d]	–	1.95 (≈ 7.32 µM)	–
O=C(NNc1ccc(Cl)cc1)c1ccc(F)cc1F [Compound 1e]	7.8	–	–
COc1ccc(NNC(=O)c2ccc(F)cc2F)cc1 [Compound 1f]	–	1.95 (≈ 7.01 µM)	–
O=C(NNc1ccc(F)cc1F)c1ccc(F)cc1F [Compound 1g]	–	15.6 (≈ 54.9 µM)	–
O=C(NNc1cc(F)ccc1F)c1ccc(F)cc1F [Compound 1h]	–	31.3 (≈ 110 µM)	–
O=C(NNc1cc(F)cc(F)c1)c1ccc(F)cc1F [Compound 1i]	–	15.6 (≈ 54.9 µM)	–
O=C(NNc1cc(Cl)cc(Cl)c1)c1ccc(F)cc1F [Compound 1j]	–	> 31.3	MIC [3]: 15.6 µg/mL (≈ 49.2 µM)
O=C(NNc1cccc(F)c1)c1ccccn1 [Compound 2a]	1.95	–	MIC (C. auris AR Bank #384 (K)): 1.95 μg/mL^−1
O=C(NNc1cccc(Cl)c1)c1ccccn1 [Compound 2b]	0.98	–	MIC (C. auris AR Bank #384 (K)): 0.98 μg/mL^−1
COc1cccc(NNC(=O)c2ccccn2)c1 [Compound 2c]	0.98	–	MIC (C. auris AR Bank #384 (K)): 0.98 μg/mL^−1
O=C(NNc1ccc(F)cc1)c1ccccn1 [Compound 2d]	–	3.9 (≈ 16.9 µM)	MIC [5]: 3.9 µg/mL (≈ 16.9 µM)
O=C(NNc1ccc(Cl)cc1)c1ccccn1 [Compound 2e]	1.95	–	MIC (C. auris AR Bank #384 (K)): 1.95 μg/mL^−1
COc1ccc(NNC(=O)c2ccccn2)cc1 [Compound 2f]	–	3.9 (≈ 16 µM)	MIC [5]: 3.9 µg/mL (≈ 16 µM)
O=C(NNc1ccc(F)cc1F)c1ccccn1 [Compound 2g]	–	0.49 (≈ 1.97 µM)	MIC [5]: 0.49 µg/mL (≈ 1.97 µM)
O=C(NNc1cc(F)ccc1F)c1ccccn1 [Compound 2h]	–	0.24 (≈ 0.963 µM)	MIC [5]: 1.95 µg/mL (≈ 7.82 µM)
O=C(NNc1cc(F)cc(F)c1)c1ccccn1 [Compound 2i]	–	0.24 (≈ 0.963 µM)	MIC [5]: 0.98 µg/mL (≈ 3.93 µM)
O=C(NNc1cc(Cl)cc(Cl)c1)c1ccccn1 [Compound 2j]	–	7.8 (≈ 27.6 µM)	MIC [5]: 7.8 µg/mL (≈ 27.6 µM)

SMILES	MIC [2] [μg/mL^−1]	MIC [4] [µg/mL]	further results
O=C(NNc1cccc(F)c1)c1ccc(F)cn1 [Compound 3a]	1.95	–	–
COc1cccc(NNC(=O)c2ccc(F)cn2)c1 [Compound 3c]	1.95	–	MIC [1]: 0.49 μg/mL^−1
O=C(NNc1ccc(F)cc1)c1ccc(F)cn1 [Compound 3d]	3.9	–	MIC [1]: 0.98 μg/mL^−1
O=C(NNc1ccc(Cl)cc1)c1ccc(F)cn1 [Compound 3e]	7.8	–	MIC [1]: 7.8 μg/mL^−1
COc1ccc(NNC(=O)c2ccc(F)cn2)cc1 [Compound 3f]	3.9	–	–
O=C(NNc1ccc(F)cc1F)c1ccc(F)cn1 [Compound 3g]	–	7.8 (≈ 29.2 µM)	MIC [3]: 0.98 µg/mL (≈ 3.67 µM)
O=C(NNc1cccc(F)c1)c1ccc(Br)cn1 [Compound 4a]	1.95	–	–
COc1cccc(NNC(=O)c2ccc(Br)cn2)c1 [Compound 4c]	–	1.95 (≈ 6.05 µM)	–
O=C(NNc1ccc(F)cc1)c1ccc(Br)cn1 [Compound 4d]	–	7.8 (≈ 25.2 µM)	MIC [3]: 1.95 µg/mL (≈ 6.29 µM)
COc1ccc(NNC(=O)c2ccc(Br)cn2)cc1 [Compound 4f]	–	1.95 (≈ 6.05 µM)	–
O=C(NNc1ccc(F)cc1F)c1ccc(Br)cn1 [Compound 4g]	–	3.9 (≈ 11.9 µM)	–
O=C(NNc1cccc(F)c1)c1cccc(F)n1 [Compound 5a]	1.95	–	–
O=C(NNc1ccc(F)cc1)c1cccc(F)n1 [Compound 5d]	–	1.95 (≈ 7.82 µM)	MIC [3]: 0.49 µg/mL (≈ 1.97 µM)
O=C(NNc1ccc(Cl)cc1)c1cccc(F)n1 [Compound 5e]	3.9	–	MIC [1]: 3.9 μg/mL^−1
COc1ccc(NNC(=O)c2cccc(F)n2)cc1 [Compound 5f]	–	1.95 (≈ 7.46 µM)	–
O=C(NNc1ccc(F)cc1F)c1cccc(F)n1 [Compound 5g]	–	7.8 (≈ 29.2 µM)	MIC [3]: 3.9 µg/mL (≈ 14.6 µM)
O=C(NNc1cccc(F)c1)c1cccc(Br)n1 [Compound 6a]	3.9	–	–
O=C(NNc1ccc(F)cc1)c1cccc(Br)n1 [Compound 6d]	–	3.9 (≈ 12.6 µM)	MIC [3]: 0.98 µg/mL (≈ 3.16 µM)
COc1ccc(NNC(=O)c2cccc(Br)n2)cc1 [Compound 6f]	–	1.95 (≈ 6.05 µM)	–
O=C(NNc1cccc(F)c1)c1ncc(F)cc1F [Compound 7a]	1.95	–	–
COc1cccc(NNC(=O)c2ncc(F)cc2F)c1 [Compound 7c]	–	7.8 (≈ 27.9 µM)	–

SMILES	MIC [2] [μg/mL^−1]	MIC [4] [µg/mL]	further results
O=C(NNc1ccc(F)cc1)c1ncc(F)cc1F [Compound 7d]	–	1.95 (≈ 7.3 µM)	MIC [3]: 0.49 µg/mL (≈ 1.83 µM)
O=C(NNc1ccc(Cl)cc1)c1ncc(F)cc1F [Compound 7e]	3.9	–	MIC [1]: 7.9 μg/mL^−1
COc1ccc(NNC(=O)c2ncc(F)cc2F)cc1 [Compound 7f]	–	3.9 (≈ 14 µM)	MIC [3]: 0.98 µg/mL (≈ 3.51 µM)
O=C(NNc1ccc(F)cc1F)c1ncc(F)cc1F [Compound 7g]	–	7.8 (≈ 27.3 µM)	MIC [3]: 0.98 µg/mL (≈ 3.44 µM)
O=C(NNc1cccc(F)c1)c1nc(F)ccc1F [Compound 8a]	1.95	–	–
COc1cccc(NNC(=O)c2nc(F)ccc2F)c1 [Compound 8c]	–	15.6 (≈ 55.9 µM)	–
O=C(NNc1ccc(F)cc1)c1nc(F)ccc1F [Compound 8d]	–	1.95 (≈ 7.3 µM)	MIC [3]: 0.49 µg/mL (≈ 1.83 µM)
O=C(NNc1ccc(Cl)cc1)c1nc(F)ccc1F [Compound 8e]	7.8	–	MIC [1]: 7.8 μg/mL^−1
COc1ccc(NNC(=O)c2nc(F)ccc2F)cc1 [Compound 8f]	–	3.9 (≈ 14 µM)	MIC [3]: 0.98 µg/mL (≈ 3.51 µM)
O=C(NNc1ccc(F)cc1F)c1nc(F)ccc1F [Compound 8g]	–	3.9 (≈ 13.7 µM)	MIC [3]: 0.98 µg/mL (≈ 3.44 µM)
O=C(NNc1cccc(F)c1)c1cnccn1 [Compound 9a]	0.98	–	–
O=C(NNc1cccc(Cl)c1)c1cnccn1 [Compound 9b]	–	1.95 (≈ 7.84 µM)	MIC [5]: 0.98 µg/mL (≈ 3.94 µM)
COc1cccc(NNC(=O)c2cnccn2)c1 [Compound 9c]	–	1.95 (≈ 7.98 µM)	MIC [5]: 1.95 µg/mL (≈ 7.98 µM)
O=C(NNc1ccc(F)cc1)c1cnccn1 [Compound 9d]	–	0.49 (≈ 2.11 µM)	–
O=C(NNc1ccc(Cl)cc1)c1cnccn1 [Compound 9e]	1.95	–	MIC (C. auris AR Bank #384 (K)): 1.95 μg/mL^−1
COc1ccc(NNC(=O)c2cnccn2)cc1 [Compound 9f]	–	0.49 (≈ 2.01 µM)	MIC [5]: 0.98 µg/mL (≈ 4.01 µM)
O=C(NNc1ccc(F)cc1F)c1cnccn1 [Compound 9g]	–	3.9 (≈ 15.6 µM)	MIC [5]: 3.9 µg/mL (≈ 15.6 µM)
O=C(NNc1cc(F)ccc1F)c1cnccn1 [Compound 9h]	–	0.49 (≈ 1.96 µM)	–
O=C(NNc1cc(F)cc(F)c1)c1cnccn1 [Compound 9i]	–	0.49 (≈ 1.96 µM)	–
O=C(NNc1cc(Cl)cc(Cl)c1)c1cnccn1 [Compound 9j]	–	15.6 (≈ 55.1 µM)	–
